Here are results for seven compounds from publication PMC6628624 (Toxins, 2019).

Data set [1] deals with Caco-2 cells. The note with it: cited from earlier work.
For data set [2] the following is noted: pig, in vivo; cited from earlier work.
The conditions of data set [3]: rat, in vivo; cited from earlier work.
For data set [4] the following is noted: monkey, in vivo; cited from earlier work.
Another data set relates to rats. The note with it: rat, in vivo; cited from earlier work.
A further data set can be described thus: in vivo. The note with it: male, Landrace × Large White × Duroc, pig, 0.1 mg/kg.
The subject of data set [5] is Caco-2 cells. The note with it: human.
For data set [6] the following is noted: in vivo.
A further data set is described as follows: in vitro. To be noted: human, Caco-2, Papp (apparent permeability coefficient). (Caco-2 cells form a polarised layer with tight junctions and transporters.)
The subject of a further data set is mice. To be noted: mouse, in vivo, cited from earlier work.
The conditions of data set [7]: rat, in vivo, sc; cited from earlier work.
The mark [8] stands for this setting: male, Landrace × Large White × Duroc, swine, 0.1 mg/kg.
Where [9] appears, read: male, Landrace × Large White × Duroc, swine, po, 0.1 mg/kg.

Read-outs that look alike come from different tables or passages of the source.

As for aflatoxin M1, the Papp with Caco-2 cells [1] is recorded as 105.10 ± 7.98 ×10^−6 cm/s.
Take `C[C@H]1CCCC(=O)CCC/C=C/c2cc(O)cc(O)c2C(=O)O1` [zearalenone]: the Papp with Caco-2 cells [1] (Caco-2) was 10.4 ± 4.7 × 10^−6 cm/s. In addition, in data set [2], the bioavailability is given as 80–85%.
As for aflatoxin B1, in data set [3], the elimination half-life is reported as 91.8 h.
With `CC1=C[C@H]2O[C@@H]3[C@H](O)C[C@](C)([C@@]2(CO)[C@H](O)C1=O)[C@]31CO1` [deoxynivalenol], the Papp with Caco-2 cells [1] (Caco-2) is on record as 0.19 ± 0.02 × 10^−6 cm/min. Also, in data set [2], the bioavailability is given as 48–109.8% and the elimination half-life was 7.2 to 15.2 h.
Regarding `C[C@@H]1Cc2c(Cl)cc(C(=O)N[C@@H](Cc3ccccc3)C(=O)O)c(O)c2C(=O)O1` [ochratoxin A], the elimination half-life in data set [4] is 840 h. For the same compound, in data set [2], the bioavailability is reported as 65.7% and the elimination half-life is given as 84.5 h.
Take `CCCC[C@@H](C)[C@@H](OC(=O)C[C@@H](CC(=O)O)C(=O)O)[C@H](C[C@@H](C)C[C@H](O)CCCC[C@@H](O)C[C@H](O)[C@H](C)N)OC(=O)C[C@@H](CC(=O)O)C(=O)O` [fumonisin B1]: the elimination half-life in data set [2] is 3.03 h.
Turning to `COc1cc(=O)oc(/C=C/C=C/C=C/C(C)=C/[C@]2(C)O[C@H](C)[C@](C)(O)[C@H]2O)c1C` [CTVD, Citreoviridin], in the data set with rats, the “outcome of chronic low-dose administration” value is listed as “rats died”. In the data set “in vivo” (iv), the AUC(0-inf) was 1510 ± 332 ng·h/mL, the AUC(0-t) was found to be 1320 ± 224 ng·h/mL, the MRT amounted to 14.6 ± 1.2 h and the half-life is 16.2 ± 4.3 h. In the data set “in vivo” (po), this compound returned an AUC(0-inf) of 1760 ± 814 ng·h/mL, an AUC(0-t) of 1050 ± 181 ng·h/mL, a Cmax of 38.2 ± 6.7 ng/mL and an MRT of 19.6 ± 4 h. For the same compound, in “in vivo” (po), the Tmax was determined as 15 ± 6 h and the half-life was 21.4 ± 12.7 h. Also, in the data set on Caco-2 cells [5], the “Papp (apparent permeability coefficient)” value is 42.6 ± 17.7 ×10^−6 cm/s. For the same compound, the adverse clinical signs result in data set [6] is on record as “None”. The “plasma CTVD concentration until 3 h after PO” value in [6] (po, 0.1 mg/kg) was “almost no increase”. In addition, the “time to eliminate CTVD in plasma” value in data set [6] (male, Landrace × Large White × Duroc, swine) is reported as “more than 40 h”. In [6] (setting [8]), the “F (bioavailability calculated using mean AUC∞ after PO and IV)” value is reported as 116.4%; the “Ft (bioavailability calculated using mean AUCt after PO and IV)” value is on record as 79.3%. Besides, the “Vd (apparent volume of distribution)” value in data set [6] (male, Landrace × Large White × Duroc, swine, iv, 0.1 mg/kg) was 1.5 ± 0.2 L. In addition, the “extrapolation estimate of AUC (from 48 h to infinity) relative to AUCt” value in data set [6] (male, Landrace × Large White × Duroc, swine, po) was 68 % of AUCt. For the same compound, in [6] (setting [9]), the “Kel (rate constant)” value is 0.4 ± 0.2 ×10^−1 h^−1 and the “Vd/F (apparent volume of distribution)” value was determined as 1.7 ± 0.3 L. Further, the Papp in the data set “in vitro” was found to be 52.2 ± 28.3 ×10⁻⁶ cm/s. In addition, the “LD50 (lethal dose 50%)” value in the data set with mice (ip) is reported as 7.5 mg/kg. Also, the “LD50 (lethal dose 50%)” value in the data set on mice (sc) was 3.6 to 11.8 mg/kg. In [7], the “CTVD still detected in the liver after 52 h” value is recorded as < 1 % of the total administered dose; the “persistence of CTVD in organs at 52 h” value is “remained in the liver, kidney, and heart”; the “time at which the concentration of CTVD was highest in the liver” value is 8 h.

As usually defined, the Papp is the rate of passage across a membrane or cell layer, normalised by area and donor concentration. Usually AUC(0-inf) stands for the area under the concentration-time curve extrapolated to infinity. What is called AUC(0-t) is the area under the concentration-time curve up to a stated or last time point. A lower AUC(0-t) goes with low exposure. As usually defined, the MRT is a mean duration of stay, worked out from the concentration-time curve. One may read the half-life as the time in which the quantity being followed falls by half. Broadly, the Cmax is the highest concentration seen after dosing. By Tmax is commonly meant the time from dosing to the highest level.
